This is an account of results in US20080319017A2, “Non-Anilinic Derivatives of Isothiazol-3(2H)-Thione 1,1-Dioxides As Liver X Receptor Modulators” (ASTRAZENECA AB, priority 2005, published 2008).

In this assay the target is T1, human LXRalpha (Homo sapiens, UniProt Q13133).
T1 construct: human LXRalpha (amino acid 205-447); expressed in transfected cells; host or cells: U2/OS osteosarcoma cells, electroporated with pSGGAL-LXRalpha (pSG5 backbone)
T1 sequence (Q13133 205-447): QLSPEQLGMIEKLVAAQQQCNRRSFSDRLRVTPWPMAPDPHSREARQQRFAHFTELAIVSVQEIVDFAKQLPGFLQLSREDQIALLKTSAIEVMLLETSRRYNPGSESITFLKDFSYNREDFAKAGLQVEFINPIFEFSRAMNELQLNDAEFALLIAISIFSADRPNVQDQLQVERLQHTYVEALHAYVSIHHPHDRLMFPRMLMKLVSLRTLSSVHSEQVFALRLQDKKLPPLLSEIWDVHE
As to the kind of experiment: Transactivation assay (reporter gene assay), GAL4-LXRalpha LBD luciferase in U2/OS cells. It counts as cell-based. Particulars: U2/OS osteosarcoma cells, 48 h incubation, read-out: EC50 for LXRα in the reporter gene assay. On the procedure: Expression vectors were prepared by inserting the ligand binding domain cDNA (complementary DNA) of human LXRalpha (amino acid 205-447) and LXRbeta (amino acid 216-461) in frame with, 3′ to the yeast GAL4 transcription factor DNA binding domain and the nuclear localization signal from the T-antigen of Polyoma Virus in the eucaryotic expression vector pSG5 (Stratagene). The resulting expression vectors pSGGAL-LXRalpha and pSGGAL-LXRbeta were used in cotransfection experiments together with the pGL3 luciferase reporter plasmid containing a minimal SV40 promoter (Promega) and five copies of the UAS GAL4 recognition site. 2.5 μg pSGGAL-LXRalpha or beta were mixed with 25 μg pGL3 5×UAS and 22.5 μg pBluscript (Stratagene) in 0.95 mL ice cold PBS containing approx. 4-9 milj. U2/OS osteosarcoma cells. After a five minute incubation on ice the cell/DNA mixture was electroporated in 0.4 cm cuvettes at 960 μF, 230 V using a BioRad electroporator and diluted to 0.32 milj cells/mL in complete DMEM [Dulbecco's Modified Eagle Medium w/o phenol red, (Gibco 11880-028) including 10% FBS (Foetal Bovine Serum), 1% PEST (Penicillin Streptomycin), 20 mM Hepes, 2 mM L-Glutamine and 0.36% Glucose Gibco 31966-021] medium. […] Luciferase activity was measured as Luminescence in the Wallac Victor reader after 15 min. incubation at room temperature. […]
(In a reporter assay the amount or activity of a reporter protein is the signal.)

As a reminder, the EC50 is the concentration at which the effect is half-maximal. Regarding `CC(C)N1C(=S)C(NC2CCN(c3ncc(C(F)(F)F)cc3Cl)CC2)=C(c2ccccc2)S1(=O)=O` [Example 1, 4-({1-[3-Chloro-5-(trifluoromethyl)pyridin-2-yl]piperidin-4-yl}amino)-2-isopropyl-5-phenylisothiazole-3(2H)-thione 1,1-dioxide], the EC50 came to 3.1 µM. Then `CC(C)N1C(=S)C(NCCCCc2ccccc2)=C(c2ccccc2)S1(=O)=O` [Example 2, 2-Isopropyl-5-phenyl-4-[(4-phenylbutyl)amino]isothiazole-3(2H)-thione 1,1-dioxide], with 10.5 µM.
